The text below walks through data of ChEMBL document CHEMBL1909046, “DrugMatrix in vitro pharmacology data”.

In experiment [1] the target is T1, Alpha-1D adrenergic receptor (Homo sapiens, UniProt P25100). Note: in other assays of this panel Not Active means under 50% inhibition at 10 µM.
T1 sequence (P25100 whole entry): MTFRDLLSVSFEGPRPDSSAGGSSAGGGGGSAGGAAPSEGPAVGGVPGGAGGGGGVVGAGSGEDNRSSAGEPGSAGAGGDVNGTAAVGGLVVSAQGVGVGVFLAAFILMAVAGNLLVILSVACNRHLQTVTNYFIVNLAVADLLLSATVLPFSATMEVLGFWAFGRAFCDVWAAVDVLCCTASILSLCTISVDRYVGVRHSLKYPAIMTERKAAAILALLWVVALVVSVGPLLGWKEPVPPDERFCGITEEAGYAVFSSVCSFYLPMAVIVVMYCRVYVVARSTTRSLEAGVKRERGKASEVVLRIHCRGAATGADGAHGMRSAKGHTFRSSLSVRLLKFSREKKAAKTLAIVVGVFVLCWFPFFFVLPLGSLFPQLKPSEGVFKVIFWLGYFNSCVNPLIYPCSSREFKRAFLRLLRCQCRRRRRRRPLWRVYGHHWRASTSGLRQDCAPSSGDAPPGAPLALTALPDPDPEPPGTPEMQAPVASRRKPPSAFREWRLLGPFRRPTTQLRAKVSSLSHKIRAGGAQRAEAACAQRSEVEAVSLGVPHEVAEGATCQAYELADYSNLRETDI
Type of experiment: cell membranes, HEK293, Membrane. The conditions noted are these: hek293.

A further experiment concerns the target Cytochrome P450 2C19 (Homo sapiens, UniProt P33261). Note: in other assays of this panel Not Active means under 50% inhibition at 10 µM.
For another experiment, the target named is T2, Substance-K receptor (Homo sapiens, UniProt P21452). Note: in other assays of this panel Not Active means under 50% inhibition at 10 µM.
T2 sequence (P21452 whole entry): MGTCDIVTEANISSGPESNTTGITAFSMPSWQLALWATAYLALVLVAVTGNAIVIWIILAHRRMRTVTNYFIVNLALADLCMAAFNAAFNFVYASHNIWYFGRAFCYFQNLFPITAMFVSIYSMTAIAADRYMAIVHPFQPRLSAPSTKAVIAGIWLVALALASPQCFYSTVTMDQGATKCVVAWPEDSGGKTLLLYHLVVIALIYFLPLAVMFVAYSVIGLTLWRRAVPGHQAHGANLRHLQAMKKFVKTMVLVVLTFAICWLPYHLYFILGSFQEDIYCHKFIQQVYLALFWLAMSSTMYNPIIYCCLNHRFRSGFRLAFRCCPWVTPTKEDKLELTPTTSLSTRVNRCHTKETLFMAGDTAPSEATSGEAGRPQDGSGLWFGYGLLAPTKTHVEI
Type of experiment: cell membranes, CHO, Membrane.

Experiment [2] has as its target Epidermal growth factor receptor (Homo sapiens, UniProt P00533). The experiment can be described thus: DRUGMATRIX: Protein Tyrosine Kinase, EGF Receptor enzyme inhibition (substrate: Poly(Glu:Tyr)). The format is cell-based, Insect cells. The settings on record: Not Active = under 50% inhibition at 10 µM.
In the next experiment the target is Cytochrome P450 2C9 (Homo sapiens, UniProt P11712). Note: in other assays of this panel Not Active means under 50% inhibition at 10 µM.
Chain of Cytochrome P450 2C9 (P11712 whole entry): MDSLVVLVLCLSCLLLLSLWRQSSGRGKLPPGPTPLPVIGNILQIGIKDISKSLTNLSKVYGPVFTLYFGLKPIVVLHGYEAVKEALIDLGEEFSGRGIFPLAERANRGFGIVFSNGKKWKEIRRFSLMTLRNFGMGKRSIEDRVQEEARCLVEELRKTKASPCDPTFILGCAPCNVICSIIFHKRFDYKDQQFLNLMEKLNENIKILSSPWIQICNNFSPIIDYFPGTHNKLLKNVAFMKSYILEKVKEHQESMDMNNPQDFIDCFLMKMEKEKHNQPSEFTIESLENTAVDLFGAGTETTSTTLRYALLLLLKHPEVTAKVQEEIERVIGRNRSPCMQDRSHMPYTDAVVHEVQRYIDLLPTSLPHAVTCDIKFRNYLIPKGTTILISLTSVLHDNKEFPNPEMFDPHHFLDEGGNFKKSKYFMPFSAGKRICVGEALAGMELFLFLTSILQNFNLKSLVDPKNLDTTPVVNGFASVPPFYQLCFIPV
In another experiment the target is T3, Androgen receptor (Rattus norvegicus, UniProt P15207). Note: in other assays of this panel Not Active means under 50% inhibition at 10 µM.
T3 sequence (P15207 whole entry): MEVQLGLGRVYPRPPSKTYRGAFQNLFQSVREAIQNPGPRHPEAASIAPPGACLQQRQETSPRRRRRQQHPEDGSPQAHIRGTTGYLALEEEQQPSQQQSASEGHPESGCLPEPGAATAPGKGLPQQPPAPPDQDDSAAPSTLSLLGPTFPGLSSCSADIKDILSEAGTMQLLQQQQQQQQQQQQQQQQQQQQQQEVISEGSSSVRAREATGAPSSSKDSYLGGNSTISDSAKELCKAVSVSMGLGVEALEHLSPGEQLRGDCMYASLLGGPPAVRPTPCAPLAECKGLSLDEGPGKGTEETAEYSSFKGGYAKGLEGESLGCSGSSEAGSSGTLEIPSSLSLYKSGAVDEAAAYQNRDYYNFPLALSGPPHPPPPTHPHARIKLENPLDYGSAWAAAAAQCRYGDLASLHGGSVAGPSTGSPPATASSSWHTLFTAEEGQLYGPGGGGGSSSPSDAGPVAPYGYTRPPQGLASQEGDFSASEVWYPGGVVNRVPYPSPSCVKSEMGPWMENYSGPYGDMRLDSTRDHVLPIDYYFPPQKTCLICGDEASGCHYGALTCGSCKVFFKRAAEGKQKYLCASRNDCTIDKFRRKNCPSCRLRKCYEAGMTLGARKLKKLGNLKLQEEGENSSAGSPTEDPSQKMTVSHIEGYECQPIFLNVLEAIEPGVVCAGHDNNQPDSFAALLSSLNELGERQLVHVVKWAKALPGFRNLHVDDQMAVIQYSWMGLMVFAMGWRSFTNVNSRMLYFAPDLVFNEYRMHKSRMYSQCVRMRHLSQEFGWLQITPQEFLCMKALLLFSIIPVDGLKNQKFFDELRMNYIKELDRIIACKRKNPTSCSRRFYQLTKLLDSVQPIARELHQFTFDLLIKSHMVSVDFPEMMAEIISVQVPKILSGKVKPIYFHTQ

The term IC50 denotes the concentration needed to halve the response being measured. Broadly, the Ki is a measure of affinity in units of concentration, obtained from inhibition or displacement.

Chain of Epidermal growth factor receptor (P00533 whole entry): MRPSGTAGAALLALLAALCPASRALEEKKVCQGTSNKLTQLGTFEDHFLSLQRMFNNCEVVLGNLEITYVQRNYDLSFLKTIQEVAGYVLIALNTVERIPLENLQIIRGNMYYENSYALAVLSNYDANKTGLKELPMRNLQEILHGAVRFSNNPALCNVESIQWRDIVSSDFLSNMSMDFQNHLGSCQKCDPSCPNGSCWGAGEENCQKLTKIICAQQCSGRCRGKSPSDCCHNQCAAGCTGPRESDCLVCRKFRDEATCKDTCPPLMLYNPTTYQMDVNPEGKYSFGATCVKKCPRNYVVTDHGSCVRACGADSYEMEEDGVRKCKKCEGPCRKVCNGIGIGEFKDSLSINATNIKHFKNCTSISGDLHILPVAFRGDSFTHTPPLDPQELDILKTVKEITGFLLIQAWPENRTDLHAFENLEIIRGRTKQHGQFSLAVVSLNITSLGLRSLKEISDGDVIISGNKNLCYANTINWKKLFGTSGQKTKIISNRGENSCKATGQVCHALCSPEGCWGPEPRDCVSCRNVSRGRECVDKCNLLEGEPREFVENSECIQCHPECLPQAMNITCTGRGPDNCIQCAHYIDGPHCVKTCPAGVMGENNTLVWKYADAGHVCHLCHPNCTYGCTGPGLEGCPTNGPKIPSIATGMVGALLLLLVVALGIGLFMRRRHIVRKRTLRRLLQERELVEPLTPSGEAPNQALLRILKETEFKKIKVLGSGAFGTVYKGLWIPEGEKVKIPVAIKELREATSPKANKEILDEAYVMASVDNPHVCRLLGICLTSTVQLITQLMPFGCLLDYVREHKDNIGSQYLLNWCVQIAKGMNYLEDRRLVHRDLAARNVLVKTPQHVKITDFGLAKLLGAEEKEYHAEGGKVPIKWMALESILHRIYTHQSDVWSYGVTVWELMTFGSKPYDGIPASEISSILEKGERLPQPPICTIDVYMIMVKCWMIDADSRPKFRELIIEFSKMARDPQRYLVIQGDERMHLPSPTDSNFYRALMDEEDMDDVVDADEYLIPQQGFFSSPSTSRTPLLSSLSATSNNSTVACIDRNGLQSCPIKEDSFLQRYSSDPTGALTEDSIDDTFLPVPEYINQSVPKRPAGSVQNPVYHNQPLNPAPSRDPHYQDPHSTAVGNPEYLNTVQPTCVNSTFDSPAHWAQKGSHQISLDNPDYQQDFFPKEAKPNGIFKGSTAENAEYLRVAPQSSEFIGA
Chain of Cytochrome P450 2C19 (P33261 whole entry): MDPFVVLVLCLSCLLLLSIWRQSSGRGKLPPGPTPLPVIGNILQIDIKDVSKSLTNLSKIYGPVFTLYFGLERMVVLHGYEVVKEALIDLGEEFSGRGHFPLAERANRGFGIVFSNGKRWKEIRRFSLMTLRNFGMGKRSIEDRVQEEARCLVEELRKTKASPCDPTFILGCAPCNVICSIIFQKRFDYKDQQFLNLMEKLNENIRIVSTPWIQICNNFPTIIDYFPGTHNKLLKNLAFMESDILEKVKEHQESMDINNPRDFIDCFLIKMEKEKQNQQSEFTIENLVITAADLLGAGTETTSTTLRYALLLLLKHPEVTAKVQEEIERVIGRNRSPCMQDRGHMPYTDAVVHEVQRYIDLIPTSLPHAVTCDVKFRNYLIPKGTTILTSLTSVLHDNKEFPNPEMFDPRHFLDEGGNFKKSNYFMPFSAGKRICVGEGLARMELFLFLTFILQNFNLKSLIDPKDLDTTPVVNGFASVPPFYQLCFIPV

Take `Cc1c(OCC(F)(F)F)ccnc1C[S+]([O-])c1nc2ccccc2[nH]1` (stereo unspecified) [LANSOPRAZOLE]: the IC50 entry in experiment [1] is “Not Active”; at Cytochrome P450 2C19 it was 337 nM; against Substance-K receptor (cho), “Not Active”; in experiment [2] (insect cells) it was “Not Active”.
For the compound `O=C(c1ccccc1C(F)(F)F)N1CCC(Cc2ccccc2)CC1`, the concentration for half-maximal inhibition (IC50) entry in experiment [1] is “Not Active”; at Cytochrome P450 2C19 it was 400 nM; at Cytochrome P450 2C9, 2000 nM; on Substance-K receptor (cho), “Not Active”; against Androgen receptor it was “Not Active”; in experiment [2] (insect cells) it was “Not Active”.
Turning to `O=C(N/N=C/c1ccc([N+](=O)[O-])o1)c1cc([N+](=O)[O-])cc([N+](=O)[O-])c1O` [NIFURSOL], the 50% inhibitory concentration (IC50) result was “Not Active” in experiment [1]; 5000 nM against Cytochrome P450 2C19; 7000 nM on Cytochrome P450 2C9; “Not Active” at Substance-K receptor (cho); “Not Active” in experiment [2] (insect cells).
As for `COC1=C(OC)C(=O)C(CCCCCCCCCCO)=C(C)C1=O` [IDEBENONE], the IC50 result in experiment [1] was “Not Active”; at Cytochrome P450 2C19, 800 nM; against Cytochrome P450 2C9, 5000 nM; on Substance-K receptor (cho), “Not Active”; at Androgen receptor, “Not Active”; in experiment [2] (insect cells), “Not Active”.
With `Oc1c(Cl)cc(Cl)c(Cl)c1Cc1c(O)c(Cl)cc(Cl)c1Cl` [HEXACHLOROPHENE], the 50% inhibitory concentration (IC50) result in experiment [1] is “Not Active”; at Cytochrome P450 2C19, 1230 nM; on Substance-K receptor (read-out: IC50) it was 4140 nM; in experiment [2] (read-out: IC50), 749 nM. Further, on Substance-K receptor (read-out: Ki), the Ki came out at 1380 nM.
`CC(=O)Oc1ccc(C(c2ccc(OC(C)=O)cc2)c2ccccn2)cc1` [BISACODYL]: the half-maximal inhibitory concentration (IC50) result in experiment [1] was “Not Active”; at Cytochrome P450 2C9 it was 10000 nM; against Substance-K receptor (cho) it was “Not Active”; at Androgen receptor it was “Not Active”; in experiment [2] (insect cells), “Not Active”.
